Experiments:
[1] = target: T1, Human Cathepsin K (Homo sapiens, UniProt P43235); assay: Cathepsin peptidase activity assay, human cathepsin K (Ki); assay type: biochemical; conditions: pH 5.5, 25±1° C.
T1 construct: Dr. Boris Turk (Josef Stefan Institute, Ljubljana, Slovenia)
T1 sequence (P43235 115-329): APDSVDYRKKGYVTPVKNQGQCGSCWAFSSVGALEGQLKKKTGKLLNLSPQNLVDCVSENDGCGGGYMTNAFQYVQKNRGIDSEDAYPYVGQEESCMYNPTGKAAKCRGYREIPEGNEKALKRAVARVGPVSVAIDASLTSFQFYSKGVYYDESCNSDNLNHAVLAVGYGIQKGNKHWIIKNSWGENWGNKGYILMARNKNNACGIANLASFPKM
Procedure: (§1) Assay protocols were based on literature precedent (Table 1; Barrett, A. J., Rawlings, N. D. and Woessner, J. F., 1998, Handbook of Proteolytic Enzymes, Academic Press, London and references therein) and modified as required to suit local assay protocols. Enzyme was added as required to initiate the reaction and the activity, as judged by the change in fluorescence upon conversion of substrate to product, was monitored over time. All assays were carried out at 25±1° C.
(§2) Bovine cathepsin S, human cathepsin L, human cathepsin H and human cathepsin B were obtained from CN Biosciences. Recombinant human cathepsin S, human cathepsin K and human cathepsin X were obtained from Dr. Boris Turk (Josef Stefan Institute, Ljubljana, Slovenia). Unless otherwise stated, all peptidase activity assays were carried out in 10 mM bis-tris-propane (BTP), pH 6.5 containing 1 mM EDTA, 5 mM 2-mercaptoethanol and 1 mM CaCl2. Human cathepsin H activity assays were carried out in 10 mM BTP pH 6.5, 142 mM […], 1 mM CaCl2, 1 mM EDTA, 1 mM DTT, 0.035 mM Zwittergent 3–16. Human cathepsin K assays were carried out in 100 mM sodium acetate; pH 5.5 containing 20 mM L-cysteine and 1 mM EDTA (Bossard, M. J., et. al., J. Biol. Chem., […], 12517–12524, 1996). […] The final enzyme concentrations used in the assays were 0.5 nM bovine cathepsin S, 1 nM cathepsin L, 0.1 nM cathepsin B, 0.25 nM Cathepsin K; 1 nM cathepsin X and 10 nM cathepsin H. For the inhibition assays, the substrates used for cathepsin S, cathepsin L, cathepsin B, cathepsin K and cathepsin H were boc-Val-Leu-Lys-AMC (KM^app≈30 μM, Ac-Phe-Arg-AMC (KMaPP 20 EM), Z-Phe-Arg-AMC (KM^app≈40 μM), Z-Leu-Arg-AMC (KM^app≈2 μM); Bz-Phe-Val-Arg-AMC (KM^app≈150 μM) respectively. In each case the substrate concentration used in each assay was equivalent to the KM^app. The rate of conversion of substrate to product was derived from the slope of the increase in fluorescence monitored continuously over time.
(§3) The apparent inhibition constant (Ki) for each compound was determined on the basis that inhibition was reversible and occurred by a pure-competitive mechanism. The Ki values were calculated, from the dependence of enzyme activity as a function of inhibitor concentration, by direct regression analysis (Prism v 3.02) using Equation 2 (Cornish-Bowden, A., 1995.).
(§4) In situations where the apparent dissociation constant (Ki^app) approached the enzyme concentrations, the Ki^app values were calculated using a quadratic solution in the form described by Equation 3 (Morrison, J. F. Trends Biochem. Sci., 7, 102–105, 1982; Morrison, J. F. Biochim. Biophys. Acta, 185, 269–286, 1969; Stone, S. R. and Hofsteenge, J. Biochemistry, 25, 4622–4628, 1986).

[2] = target: T2, Bovine Cathepsin S (Bos taurus, UniProt P25326); assay: Cathepsin peptidase activity assay, bovine cathepsin S (Ki); assay type: biochemical; conditions: pH 6.5, 25±1° C.
T2 construct: purchased CN Biosciences
T2 sequence (P25326 115-331): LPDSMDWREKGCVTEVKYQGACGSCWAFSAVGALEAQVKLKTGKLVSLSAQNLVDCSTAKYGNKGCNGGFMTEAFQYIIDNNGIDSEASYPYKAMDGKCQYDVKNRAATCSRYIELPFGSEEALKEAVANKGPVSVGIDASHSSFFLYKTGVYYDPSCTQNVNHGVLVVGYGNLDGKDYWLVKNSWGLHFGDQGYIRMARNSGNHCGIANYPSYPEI
Procedure: as §1, §2, §3, §4

[3] = target: Cruzipain (Trypanosoma cruzi, UniProt P25779); assay: Trypanosoma cruzi cruzipain peptidase activity assay (Ki); assay type: biochemical; conditions: wild-type cruzipain from Trypanosoma cruzi Dm28 epimastigotes, pH 6.75, 25±1° C.
Chain of Cruzipain (P25779 whole entry): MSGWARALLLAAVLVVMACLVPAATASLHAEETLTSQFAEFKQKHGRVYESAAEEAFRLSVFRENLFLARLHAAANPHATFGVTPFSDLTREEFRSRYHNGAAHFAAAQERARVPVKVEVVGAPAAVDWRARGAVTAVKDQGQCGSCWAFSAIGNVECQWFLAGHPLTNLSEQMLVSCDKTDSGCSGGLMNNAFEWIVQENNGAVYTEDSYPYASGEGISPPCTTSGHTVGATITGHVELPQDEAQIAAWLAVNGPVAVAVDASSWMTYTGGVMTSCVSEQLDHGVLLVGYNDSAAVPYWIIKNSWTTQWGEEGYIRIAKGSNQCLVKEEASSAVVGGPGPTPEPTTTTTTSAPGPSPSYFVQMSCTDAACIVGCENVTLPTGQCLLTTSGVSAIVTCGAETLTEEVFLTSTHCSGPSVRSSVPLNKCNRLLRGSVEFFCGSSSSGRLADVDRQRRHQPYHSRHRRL
Procedure: as §1
Wild-type cruzipain, derived from Trypanosoma cruzi Dm28 epimastigotes, was obtained from Dr. Julio Scharfstein (Instituto de Biofisica Carlos Chagas Filho, Universidade Federal do Rio de Janeiro, R10 de Janeiro, Brazil). Activity assays were carried out in 100 mM sodium phosphate, pH 6.75 containing 1 mM EDTA and 10 mM L-cysteine using 2.5 nM enzyme. Ac-Phe-Arg-AMC (KM^app≈12 μM) and D-Val-Leu-Lys-AMC (KM^app≈4 μM) were used as the substrates. Routinely, Ac-FR-AMC was used at a concentration equivalent to KM^app and D-Val-Leu-Lys-AMC was used at a concentration of 25 μM. The rate of conversion of substrate to product was derived from the slope of the increase in fluorescence monitored continuously over time.
as §3, §4

[4] = target: T3, Human Cathepsin L (Homo sapiens, UniProt P07711); assay: Cathepsin peptidase activity assay, human cathepsin L (Ki); assay type: biochemical; conditions: pH 6.5, 25±1° C.
T3 construct: purchased CN Biosciences
T3 sequence (P07711 114-333): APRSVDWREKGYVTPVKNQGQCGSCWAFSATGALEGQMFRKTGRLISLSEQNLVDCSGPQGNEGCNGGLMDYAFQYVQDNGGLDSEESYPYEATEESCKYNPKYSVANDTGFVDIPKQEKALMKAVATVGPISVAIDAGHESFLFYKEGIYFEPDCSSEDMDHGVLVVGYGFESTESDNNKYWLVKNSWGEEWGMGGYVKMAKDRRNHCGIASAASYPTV
Procedure: as §1, §2, §3, §4

[5] = tested on: Trypanosoma cruzi-infected mammalian cell cultures; conditions: added to Trypanosoma cruzi-infected mammalian cell cultures; cited from earlier work
[6] = tested on: Trypanosoma cruzi infection; conditions: during the acute phase of infection; cited from earlier work

Structure (SMILES)	Ki [1] [µM]	Ki [2] [µM]	Ki [3] [µM]	Ki [4] [µM]	effect on replication and differentiation of the parasite [5]	cure [6] [%]
CC(C)CC(C(=O)N[C@H]1C(=O)CO[C@@H]1C)c1cccc(-c2ccccc2)c1 (mixture of isomers) [Example 46, (2R, 3R) 2-Biphenyl-3-yl-4-methyl-pentanoic acid (2-methyl-4-oxo-tetrahydrofuran-3-yl)-amide]	< 1	> 20	> 10	> 5	–	–
C[C@H]1OCC(=O)[C@H]1NC(=O)[C@H](Cc1ccccc1)OCc1cccc2ccccc12 (racemic) [Example 49]	> 100	> 100	> 100	< 10	–	–
C[C@@H]1OCC(=O)[C@H]1NC(=O)[C@H](CC1CCCCC1)SCc1ccco1 [Example 4, (2S, 3S) 3-Cyclohexyl-2-(furan-2-ylmethylsulfanyl)-N-(2-methyl-4-oxo-tetrahydrofuran-3-yl)-propionamide]	> 100	< 10	> 100	> 100	–	–
CC(C)C[C@H](CC(=O)n1ccc(-c2ccccc2)c1)C(=O)N[C@@H]1C(=O)CO[C@@H]1C [Example 22, (2R, 3S) 4-Methyl-2-[2-oxo-2-(3-phenyl-pyrrol-1-yl)-ethyl]-pentanoic acid (2-methyl-4-oxo-tetrahydrofuran-3-yl)-amide]	> 5	> 50	< 5	> 100	–	–
CC(NC(=O)C(Cc1ccccc1)NC(=O)OCc1ccccc1)C(=O)CF (stereo not drawn) [Z-Phe-Ala-FMK]	–	–	–	–	blocked replication and differentiation of the parasite	–
O=C(Cn1ccnc1[N+](=O)[O-])NCc1ccccc1 [benznidazole]	–	–	–	–	–	~60

Reference: patent publication US7132449B2, “Inhibitors of cruzipain and other cysteine proteases” (Amura Therapeutics Limited, priority 2001, dated 2006)
